In US4975354A, “Photographic element comprising an ethyleneoxy-substituted amino compound and process adapted to provide high constrast development” (Eastman Kodak Company, priority 1989, dated 1990):

Experiment: Example 33: Film A (no incorporated booster) in Developer A versus Film B (Compound XIII) in Developer B, 80 seconds at 30° C.
Conditions: Table III data
Method: This example was carried out using photographic elements similar to those of Examples 1 to 32 except that the nucleating agent employed was a mixture of the hydrazine compound: [drawing 33] at a coverage of 0.0121 g/m^2 and the hydrazine compound: [drawing 34] at a coverage of 0.00237 g/m^2.
A film designated Film A was prepared with no incorporated booster compound, while a film designated Film B contained 0.0861 g/m^2 of Compound XIII. A developing solution, designated Developer A, was formulated from the following ingredients: […]
A second developing solution, designated Developer B, differed from Developer A in that the 3-diethylamino-1,2-propanediol was omitted.
Film A was developed in Developer A at a pH of 11.6 for 80 seconds at 30° C. Film B was developed in Developer B for 80 seconds at 30° C. at pH levels of 11.6, 11.5 and 11.4. The pH's of the developing solutions were adjusted to the designated levels using concentrated potassium hydroxide and concentrated hydrochloric acid.

## CCN(CC)CC(O)CO (stereo not shown) [3-diethylamino-1,2-propanediol]
  booster activity (in words): highly effective booster compound
